Assay results reported in patent US20110318768A1, “METHOD FOR DETERMINING SENSITIVITY OF TUMOR CELLS TO TYROSINE KINASE INHIBITOR AND COMPUTER PROGRAM PRODUCT” (SYSMEX CORPORATION, priority 2010, published 2011).
Like-named read-outs stand apart in the source and are kept apart here.

Columns and labels:
[1] = tested on: AU565 breast cancer cell line; test: Growth inhibition by lapatinib (Cell Titer-Glo); assay type: cell-based; conditions: Homo sapiens
Description: (§1) The sensitivity of cell lines to EGFR/HER2 inhibitor was examined by culturing breast cancer cell lines shown in Table 3 in the presence of EGFR/HER2 inhibitor and examining growth inhibition effects on the cell lines.
(§2) The breast cancer cell lines shown in Table 3 were seeded in a 96 well assay plate (#3917: Costar) at 4,000 cells/well, and cultured at 37° C. After 24 hours, the medium was changed to a medium containing a DMSO solution of lapatinib ditosylate hydrate (hereafter also referred to as lapatinib; #L-4804: LC Laboratories) with various concentrations, and the culture was continued at 37° C. for 72 hours. The concentrations of lapatinib in the medium were 0 (control), 0.1, 1, 10, 30, 100, 300, 1,000 and 3,000, and 10,000 nM. The concentration of DMSO in the medium is constant (0.1 (v/v) %) in all of the wells. The cell number in the wells at 0 and 72 hours after exchange of the medium was measured using Cell Titer-Glo Luminescent Cell Viability Assay (#G7571: Promega KK.). The lapatinib concentration to yield half the cell number of the control in 72 hours was determined by fitting with a logistic curve and the concentration was IC50. The cell line whose IC50 was less than 1 μM was defined as a “sensitive line”, while the cell line whose IC50 was 1 μM or more was defined as an “insensitive line”.

[2] = tested on: BT-20 breast cancer cell line; test: Growth inhibition by lapatinib (Cell Titer-Glo); assay type: cell-based; conditions: Homo sapiens
Description: as §1, §2

[3] = tested on: BT-474 breast cancer cell line; test: Growth inhibition by lapatinib (Cell Titer-Glo); assay type: cell-based; conditions: Homo sapiens
Description: as §1, §2

[4] = tested on: BT-483 breast cancer cell line; test: Growth inhibition by lapatinib (Cell Titer-Glo); assay type: cell-based; conditions: Homo sapiens
Description: as §1, §2

[5] = tested on: BT-549 breast cancer cell line; test: Growth inhibition by lapatinib (Cell Titer-Glo); assay type: cell-based; conditions: Homo sapiens
Description: as §1, §2

[6] = tested on: CAMA-1 breast cancer cell line; test: Growth inhibition by lapatinib (Cell Titer-Glo); assay type: cell-based; conditions: Homo sapiens
Description: as §1, §2

[7] = tested on: HCC1419 breast cancer cell line; test: Growth inhibition by lapatinib (Cell Titer-Glo); assay type: cell-based; conditions: Homo sapiens
Description: as §1, §2

[8] = tested on: HCC1428 breast cancer cell line; test: Growth inhibition by lapatinib (Cell Titer-Glo); assay type: cell-based; conditions: Homo sapiens
Description: as §1, §2

[9] = tested on: HCC1569 breast cancer cell line; test: Growth inhibition by lapatinib (Cell Titer-Glo); assay type: cell-based; conditions: Homo sapiens
Description: as §1, §2

[10] = tested on: HCC1806 breast cancer cell line; test: Growth inhibition by lapatinib (Cell Titer-Glo); assay type: cell-based; conditions: Homo sapiens
Description: as §1, §2

[11] = tested on: HCC1937 breast cancer cell line; test: Growth inhibition by lapatinib (Cell Titer-Glo); assay type: cell-based; conditions: Homo sapiens
Description: as §1, §2

[12] = tested on: HCC1954 breast cancer cell line; test: Growth inhibition by lapatinib (Cell Titer-Glo); assay type: cell-based; conditions: Homo sapiens
Description: as §1, §2

[13] = tested on: HCC202 breast cancer cell line; test: Growth inhibition by lapatinib (Cell Titer-Glo); assay type: cell-based
Description: as §1, §2

[14] = tested on: HS578T breast cancer cell line; test: Growth inhibition by lapatinib (Cell Titer-Glo); assay type: cell-based; conditions: Homo sapiens, Hs-578T
Description: as §1, §2

[15] = tested on: MCF7 breast cancer cell line; test: Growth inhibition by lapatinib (Cell Titer-Glo); assay type: cell-based; conditions: Homo sapiens
Description: as §1, §2

[16] = tested on: MDA-MB-157 breast cancer cell line; test: Growth inhibition by lapatinib (Cell Titer-Glo); assay type: cell-based; conditions: Homo sapiens
Description: as §1, §2

[17] = tested on: MDA-MB-231 breast cancer cell line; test: Growth inhibition by lapatinib (Cell Titer-Glo); assay type: cell-based; conditions: Homo sapiens
Description: as §1, §2

[18] = tested on: MDA-MB-415 breast cancer cell line; test: Growth inhibition by lapatinib (Cell Titer-Glo); assay type: cell-based; conditions: Homo sapiens
Description: as §1, §2

[19] = tested on: MDA-MB-435S breast cancer cell line; test: Growth inhibition by lapatinib (Cell Titer-Glo); assay type: cell-based; conditions: Homo sapiens
Description: as §1, §2

[20] = tested on: MDA-MB-436 breast cancer cell line; test: Growth inhibition by lapatinib (Cell Titer-Glo); assay type: cell-based; conditions: Homo sapiens
Description: as §1, §2

[21] = tested on: MDA-MB-453 breast cancer cell line; test: Growth inhibition by lapatinib (Cell Titer-Glo); assay type: cell-based; conditions: Homo sapiens
Description: as §1, §2

[22] = tested on: MDA-MB-468 breast cancer cell line; test: Growth inhibition by lapatinib (Cell Titer-Glo); assay type: cell-based; conditions: Homo sapiens
Description: as §1, §2

[23] = tested on: SK-BR-3 breast cancer cell line; test: Growth inhibition by lapatinib (Cell Titer-Glo); assay type: cell-based; conditions: Homo sapiens
Description: as §1, §2

[24] = tested on: T-47D breast cancer cell line; test: Growth inhibition by lapatinib (Cell Titer-Glo); assay type: cell-based; conditions: Homo sapiens, T47D
Description: as §1, §2

[25] = tested on: UACC-812 breast cancer cell line; test: Growth inhibition by lapatinib (Cell Titer-Glo); assay type: cell-based; conditions: Homo sapiens
Description: as §1, §2

[26] = tested on: UACC-893 breast cancer cell line; test: Growth inhibition by lapatinib (Cell Titer-Glo); assay type: cell-based; conditions: Homo sapiens
Description: as §1, §2

[27] = tested on: ZR-75-1 breast cancer cell line; test: Growth inhibition by lapatinib (Cell Titer-Glo); assay type: cell-based; conditions: Homo sapiens
Description: as §1, §2

[28] = tested on: ZR-75-30 breast cancer cell line; test: Growth inhibition by lapatinib (Cell Titer-Glo); assay type: cell-based; conditions: Homo sapiens
Description: as §1, §2

BT-474 = conditions: Konecny et al.; cited from earlier work
SK-Br-3 = conditions: Konecny et al.; cited from earlier work
MDA-MB231 = conditions: Konecny et al.; cited from earlier work
MCF7 = conditions: Konecny et al.; cited from earlier work
T47D = conditions: Konecny et al.; cited from earlier work
[29] = 72 hours culture, read-out: IC50
[30] = read-out: Reference example 1 Sensitivity to lapatinib

Compound: CS(=O)(=O)CCNCc1ccc(-c2ccc3ncnc(Nc4ccc(OCc5cccc(F)c5)c(Cl)c4)c3c2)o1 [lapatinib, N-(3-chloro-4-[[(3-fluorophenyl)methyl]oxy]phenyl)-6-[5-([[2-(methylsulfonyl)ethyl]amino]methyl)-2-furanyl]-4-quinazolineamine bis(4-methylbenzenesulfonate)monohydrate]
- IC50 [1, 29]: 157 nM
- IC50 [1, 30]: < 1000 nM
- IC50 [2, 29]: > 10000 nM
- IC50 [2, 30]: ≥ 1000 nM
- IC50 [3, 29]: 80 nM
- IC50 [3, 30]: < 1000 nM
- IC50 [4, 29]: > 10000 nM
- IC50 [4, 30]: ≥ 1000 nM
- IC50 [5, 29]: > 10000 nM
- IC50 [5, 30]: ≥ 1000 nM
- IC50 [6, 29]: > 10000 nM
- IC50 [6, 30]: ≥ 1000 nM
- IC50 [7, 29]: 124 nM
- IC50 [7, 30]: < 1000 nM
- IC50 [8, 29]: > 10000 nM
- IC50 [8, 30]: ≥ 1000 nM
- IC50 [9, 29]: 4820 nM
- IC50 [9, 30]: ≥ 1000 nM
- IC50 [10, 29]: > 10000 nM
- IC50 [10, 30]: ≥ 1000 nM
- IC50 [11, 29]: > 10000 nM
- IC50 [11, 30]: ≥ 1000 nM
- IC50 [12, 29]: 1470 nM
- IC50 [12, 30]: ≥ 1000 nM
- IC50 [13, 29]: 2470 nM
- IC50 [13, 30]: ≥ 1000 nM
- IC50 [14, 29]: > 10000 nM
- IC50 [14, 30]: ≥ 1000 nM
- IC50 [15, 29]: > 10000 nM
- IC50 [15, 30]: ≥ 1000 nM
- IC50 [16, 29]: > 10000 nM
- IC50 [16, 30]: ≥ 1000 nM
- IC50 [17, 29]: > 10000 nM
- IC50 [17, 30]: ≥ 1000 nM
- IC50 [18, 29]: > 10000 nM
- IC50 [18, 30]: ≥ 1000 nM
- IC50 [19, 29]: > 10000 nM
- IC50 [19, 30]: ≥ 1000 nM
- IC50 [20, 29]: > 10000 nM
- IC50 [20, 30]: ≥ 1000 nM
- IC50 [21, 29]: 309 nM
- IC50 [21, 30]: < 1000 nM
- IC50 [22, 29]: 3780 nM
- IC50 [22, 30]: ≥ 1000 nM
- IC50 [23, 29]: 315 nM
- IC50 [23, 30]: < 1000 nM
- IC50 [24, 29]: > 10000 nM
- IC50 [24, 30]: ≥ 1000 nM
- IC50 [25, 29]: 490 nM
- IC50 [25, 30]: < 1000 nM
- IC50 [26, 29]: 482 nM
- IC50 [26, 30]: < 1000 nM
- IC50 [27, 29]: > 10000 nM
- IC50 [27, 30]: ≥ 1000 nM
- IC50 [28, 29]: 211 nM
- IC50 [28, 30]: < 1000 nM
- lapatinib sensitivity of cell line (BT-474): sensitive
- lapatinib sensitivity of cell line (SK-Br-3): sensitive
- lapatinib sensitivity of cell line (MDA-MB231): insensitive
- lapatinib sensitivity of cell line (MCF7): insensitive
- lapatinib sensitivity of cell line (T47D): insensitive
